# Reference: patent US20170173002A1, “Compositions and Methods for Treating an Infection” (CMPD LICENSING, LLC, priority 2015, published 2017)
# Experiments:
# [1] = test system: Mycoplasma pneumoniae; assay: Expected efficacy of antibiotic agents; details: expected efficacy against Mycoplasma pneumoniae
# [2] = test system: Streptococcus agalactiae; assay: Expected efficacy of antibiotic agents; details: expected efficacy against Streptococcus agalactiae
# [3] = test system: Rickettsiae; details: expected efficacy against Rickettsiae
# [4] = test system: Legionella pneumophila; details: expected efficacy against Legionella pneumophila
# [5] = test system: Pseudomonas fluorescens; assay: Expected efficacy of antibiotic agents; details: expected efficacy against Pseudomonas fluorescens
# [6] = test system: Enterococcus faecium; assay: Expected efficacy of antibiotic agents; details: expected efficacy against Enterococcus faecium
# [7] = test system: Clostridium difficile; assay: Expected efficacy of antibiotic agents; details: expected efficacy against Clostridium difficile
# [8] = test system: Campylobacter jejuni; assay: Expected efficacy of antibiotic agents; details: expected efficacy against Campylobacter jejuni
# [9] = test system: Enterobacter aerogenes; assay: Expected efficacy of antibiotic agents; details: expected efficacy against Enterobacter aerogenes
# [10] = test system: Staphylococcus epidermidis; assay: Expected efficacy of antibiotic agents; details: expected efficacy against Staphylococcus epidermidis
# [11] = test system: Chlamydia psittaci; details: expected efficacy against Chlamydia psittaci
# [12] = test system: Staphylococcus aureus (MSSA); assay: Expected efficacy of antibiotic agents; details: expected efficacy against Staphylococcus aureus (MSSA)
# [13] = test system: Proteus vulgaris; assay: Expected efficacy of antibiotic agents; details: expected efficacy against Proteus vulgaris
# [14] = test system: Klebsiella (Calymmatobacterium) granulomatis; assay: Expected efficacy of antibiotic agents; details: expected efficacy against Klebsiella (Calymmatobacterium) granulomatis
# [15] = test system: Enterococcus faecalis; assay: Expected efficacy of antibiotic agents; details: expected efficacy against Enterococcus faecalis
# [16] = test system: Haemophilus influenzae; assay: Expected efficacy of antibiotic agents; details: expected efficacy against Haemophilus influenzae
# [17] = test system: Escherichia coli; assay: Expected efficacy of antibiotic agents; details: expected efficacy against Escherichia coli
# [18] = test system: Enterobacter cloacae; assay: Expected efficacy of antibiotic agents; details: expected efficacy against Enterobacter cloacae
# [19] = test system: Citrobacter freundii; assay: Expected efficacy of antibiotic agents; details: expected efficacy against Citrobacter freundii
# [20] = test system: Pseudomonas aeruginosa; assay: Expected efficacy of antibiotic agents; details: expected efficacy against Pseudomonas aeruginosa
# [21] = test system: Acinetobacter calcoaceticus; assay: Expected efficacy of antibiotic agents; details: expected efficacy against Acinetobacter calcoaceticus
# [22] = test system: Bacteroides fragilis; assay: Expected efficacy of antibiotic agents; details: expected efficacy against Bacteroides fragilis
# [23] = test system: Francisella tularensis; details: expected efficacy against Francisella tularensis
# [24] = test system: Klebsiella oxytoca; assay: Expected efficacy of antibiotic agents; details: expected efficacy against Klebsiella oxytoca
# [25] = test system: Serratia marcescens; assay: Expected efficacy of antibiotic agents; details: expected efficacy against Serratia marcescens
# [26] = test system: Vibrio cholerae; assay: Expected efficacy of antibiotic agents; details: expected efficacy against Vibrio cholerae
# [27] = test system: Citrobacter diversus; assay: Expected efficacy of antibiotic agents; details: expected efficacy against Citrobacter diversus
# [28] = test system: Bartonella bacilliformis; assay: Expected efficacy of antibiotic agents; details: expected efficacy against Bartonella bacilliformis
# [29] = test system: Proteus mirabilis; assay: Expected efficacy of antibiotic agents; details: expected efficacy against Proteus mirabilis
# [30] = test system: Moraxella catarrhalis; assay: Expected efficacy of antibiotic agents; details: expected efficacy against Moraxella catarrhalis
# [31] = test system: Klebsiella pneumoniae; assay: Expected efficacy of antibiotic agents; details: expected efficacy against Klebsiella pneumoniae
# [32] = test system: Enterobacter sakazakii; assay: Expected efficacy of antibiotic agents; details: expected efficacy against Enterobacter sakazakii
# [33] = test system: Acinetobacter lwoffii; assay: Expected efficacy of antibiotic agents; details: expected efficacy against Acinetobacter lwoffii
# [34] = test system: Chlamydia pneumoniae; assay: Expected efficacy of antibiotic agents; details: expected efficacy against Chlamydia pneumoniae
# [35] = test system: Bordetella pertussis; assay: Expected efficacy of antibiotic agents; details: expected efficacy against Bordetella pertussis
# [36] = test system: Streptococcus pneumoniae; assay: Expected efficacy of antibiotic agents; details: expected efficacy against Streptococcus pneumoniae
# [37] = test system: Chlamydia trachomatis; assay: Expected efficacy of antibiotic agents; details: expected efficacy against Chlamydia trachomatis
# [38] = test system: Providencia stuartii; assay: Expected efficacy of antibiotic agents; details: expected efficacy against Providencia stuartii
# [39] = test system: Providencia rettgeri; assay: Expected efficacy of antibiotic agents; details: expected efficacy against Providencia rettgeri
# [40] = test system: Morganella morganii; assay: Expected efficacy of antibiotic agents; details: expected efficacy against Morganella morganii
# [41] = test system: Methicillin resistant staph aureus (MRSA); assay: Expected efficacy of antibiotic agents; details: expected efficacy against Methicillin resistant staph aureus (MRSA)
# [42] = test system: Clostridium perfringens; details: expected efficacy against Clostridium perfringens
# [43] = test system: Acinetobacter baumannii; assay: Expected efficacy of antibiotic agents; details: expected efficacy against Acinetobacter baumannii
# [44] = test system: Corynebacterium jeikeium; assay: Expected efficacy of antibiotic agents; details: expected efficacy against Corynebacterium jeikeium
# [45] = test system: Streptococcus pyogenes; assay: Expected efficacy of antibiotic agents; details: expected efficacy against Streptococcus pyogenes
# [46] = test system: Brucella species; details: expected efficacy against Brucella species
# [47] = test system: Neisseria meningitidis; assay: Expected efficacy of antibiotic agents; details: expected efficacy against Neisseria meningitidis
# [48] = test system: Salmonella typhi; assay: Expected efficacy of antibiotic agents; details: expected efficacy against Salmonella typhi
# [49] = test system: Yersinia pestis; details: expected efficacy against Yersinia pestis
# [50] = test system: Shigella flexneri; assay: Expected efficacy of antibiotic agents; details: expected efficacy against Shigella flexneri
# [51] = test system: Haemophilus ducreyi; assay: Expected efficacy of antibiotic agents; details: expected efficacy against Haemophilus ducreyi
# [52] = test system: Neisseria gonorrhoeae; assay: Expected efficacy of antibiotic agents; details: expected efficacy against Neisseria gonorrhoeae
# [53] = test system: Shigella dysenteriae; assay: Expected efficacy of antibiotic agents; details: expected efficacy against Shigella dysenteriae
# [54] = test system: Corynebacterium urealyticum; assay: Expected efficacy of antibiotic agents; details: expected efficacy against Corynebacterium urealyticum
# [55] = test system: Shigella sonnei; assay: Expected efficacy of antibiotic agents; details: expected efficacy against Shigella sonnei
# [56] = test system: Shigella boydii; assay: Expected efficacy of antibiotic agents; details: expected efficacy against Shigella boydii
compound,measurement,setting,value
CC[C@H]1OC(=O)[C@H](C)[C@@H](O[C@H]2C[C@@](C)(OC)[C@@H](O)[C@H](C)O2)[C@H](C)[C@@H](O[C@@H]2O[C@H](C)C[C@H](N(C)C)[C@H]2O)[C@](C)(O)C[C@@H](C)CN(C)[C@H](C)[C@@H](O)[C@]1(C)O [Azithromycin],Efficacy,[1],yes
same,Efficacy,[2],yes
same,Efficacy,[3],yes
same,Efficacy,[4],yes
same,Efficacy,[5],no
same,Efficacy,[6],no
same,Efficacy,[7],no
same,Efficacy,[8],yes
same,Efficacy,[9],no
same,Efficacy,[10],yes
same,Efficacy,[11],yes
same,Efficacy,[12],yes
same,Efficacy,[13],no
same,Efficacy,[14],no
same,Efficacy,[15],no
same,Efficacy,[16],yes
same,Efficacy,[17],no
same,Efficacy,[18],no
same,Efficacy,[19],no
same,Efficacy,[20],no
same,Efficacy,[21],no
same,Efficacy,[22],no
same,Efficacy,[23],no
same,Efficacy,[24],no
same,Efficacy,[25],no
same,Efficacy,[26],yes
same,Efficacy,[27],no
same,Efficacy,[28],yes
same,Efficacy,[29],no
same,Efficacy,[30],yes
same,Efficacy,[31],no
same,Efficacy,[32],no
same,Efficacy,[33],no
same,Efficacy,[34],yes
same,Efficacy,[35],yes
same,Efficacy,[36],yes
same,Efficacy,[37],yes
same,Efficacy,[38],no
same,Efficacy,[39],no
same,Efficacy,[40],no
same,Efficacy,[41],no
same,Efficacy,[42],no
same,Efficacy,[43],no
same,Efficacy,[44],no
same,Efficacy,[45],yes
same,Efficacy,[46],no
same,Efficacy,[47],yes
C/C(=C\C(=O)OCCCCCCCCC(=O)O)C[C@@H]1OC[C@H](C[C@@H]2O[C@H]2[C@@H](C)[C@H](C)O)[C@@H](O)[C@H]1O [Bactroban],Efficacy,[48],no
same,Efficacy,[3],no
same,Efficacy,[4],no
same,Efficacy,[5],no
same,Efficacy,[8],no
same,Efficacy,[9],no
same,Efficacy,[12],yes
same,Efficacy,[13],no
same,Efficacy,[14],no
same,Efficacy,[16],no
same,Efficacy,[17],no
same,Efficacy,[49],no
same,Efficacy,[18],no
same,Efficacy,[50],no
same,Efficacy,[19],no
same,Efficacy,[51],no
same,Efficacy,[52],no
same,Efficacy,[20],no
same,Efficacy,[53],no
same,Efficacy,[21],no
same,Efficacy,[23],no
same,Efficacy,[24],no
same,Efficacy,[25],no
same,Efficacy,[26],no
same,Efficacy,[54],no
same,Efficacy,[27],no
same,Efficacy,[28],no
same,Efficacy,[29],no
same,Efficacy,[30],no
same,Efficacy,[31],no
same,Efficacy,[32],no
same,Efficacy,[33],no
same,Efficacy,[35],no
same,Efficacy,[38],no
same,Efficacy,[39],no
same,Efficacy,[40],no
same,Efficacy,[41],yes
same,Efficacy,[55],no
same,Efficacy,[56],no
same,Efficacy,[42],no
same,Efficacy,[43],no
same,Efficacy,[44],no
same,Efficacy,[45],yes
same,Efficacy,[46],no
same,Efficacy,[47],no
